Laboratory results published in patent US4555518A, “Fluoroalkoxy substituted benzimidazoles useful as gastric acid secretion inhibitors” (Byk Gulden Lomberg Chemische Fabrik GmbH, priority 1983, dated 1985).

What was measured:
[1] = tested on: gastric secretion (HCl) (rat stomach); assay: Shay rat: inhibition of gastric secretion (HCl) in the course of 4 h; assay type: in vivo; conditions: for ED25 / ED50: Rattus norvegicus, po, perorally, rats; for ED25: dose reducing HCl secretion (4 h) by 25% vs control; for ED50: dose reducing HCl secretion (4 h) by 50% vs control; for Gastric secretion (rats): % inhibition of HCl secretion: after administration of the antiulcerous ED50, perorally, 4 h
Experimental: (§1) In these experiments, the compounds according to the invention were compared with prior art compounds (A-D) of European Patent Applications Nos. 0 005 129 and 0 074 341. The compounds investigated are numbered as follows: The influence of the compounds of the prior art and the compounds according to the invention on gastric lesion formation induced by pyloric ligature (4 h; so-called Shay rat) and oral administration of 100 mg/kg of acetylsalicyclic acid, and the gastric secretion (HCl) in the course of 4 h in rats is shown in the following table. | *ED25 and ED50 = dose which reduces the lesion index or the HCL | secretion(4h) in the rat stomach by 25 and, respectively, 50% in the | treated group in comparison with the control group. | **after administration of the antiulcerous ED50. The antiulcerogenic action was tested by the so-called Shay rat method: Ulcers are caused in rats which have been fasted for 24 hours (female, 180-200 g, 4 animals per cage on a high grid) by pyloric ligature (under diethyl ether anesthesia) and oral administration of 100 mg/10 ml/kg of acetylsalicylic acid. The substances to be tested are administered orally (10 ml/kg) one hour before the pyloric ligature. The wound is closed by means of Michel clamps. 4 hours thereafter, the animals are sacrificed under ether anesthesia by Atlas dislocation and resection of the stomach. The stomach is opened longitudinally and attached to a cork plate, after the amount of gastric juice secreted (volume) and later its HCl content (titration with sodium hydroxide solution) have first been determined; the number and size (=diameter) of the ulcers present are determined under a stereomicroscope at 10-fold magnification. The product of the degree of severity (according to the following points scale) and number of ulcers serves as the individual lesion index. The reduction in the average lesion index of each treated group compared with the control group (=100%) serves as a measure of the antiulcerogenic effect.

[2] = tested on: gastric lesion formation (rat stomach); assay: Shay rat: inhibition of gastric lesion formation induced by pyloric ligature and oral acetylsalicylic acid (protective effect on the stomach); assay type: in vivo; conditions: perorally, rats, 1 h before pyloric ligature, 4 h, 100 mg/kg acetylsalicylic acid, dose reducing lesion index by 50% vs control
Experimental: as §1, with “group.” for “group. | **after administration of the antiulcerous ED50.”

Row | SMILES | ED25 [1] | ED50 [1] | Gastric secretion (rats): % inhibition of HCl secretion [1] | ED50 [2]
1 | COc1ccc2[nH]c([S+]([O-])Cc3ncc(C)c(OC)c3C)nc2c1 (stereo not drawn) [Serial No. B, 5-methoxy-2-[(4-methoxy-3,5-dimethyl-2-pyridylmethyl)sulfinyl]-1H--benzimidazole, reference compound] | 1.9 mg/kg | 4.6 mg/kg | 29% | 2.2 mg/kg
2 | COc1cc(C[S+]([O-])c2nc3cc(OC(F)(F)F)ccc3[nH]2)ncc1C (stereo not drawn) [Serial No. 4, 2-[(4-methoxy-5-methyl-2-pyridyl)methylsulfinyl]-5-trifluoromethoxy-1H-benzimidazole] | 0.6 mg/kg | 1.6 mg/kg | 32% | 0.9 mg/kg
3 | COc1ccnc(C[S+]([O-])c2nc3cc(OC(F)F)ccc3[nH]2)c1C (stereo not drawn) [Serial No. 12, 5-difluoromethoxy-2-[(4-methoxy-3-methyl-2-pyridyl)methylsulfinyl]-1H-benzimidazole] | ~0.3 mg/kg | ~0.6 mg/kg | ~ 20% | ~0.3 mg/kg
4 | COc1ccnc(CSc2nc3cc(OCC(F)(F)F)ccc3[nH]2)c1C [Serial No. 11, 2-[(4-methoxy-3-methyl-2-pyridyl)methylthio]-5-(2,2,2-trifluoroethoxy)-1H-benzimidazole] | 0.5 mg/kg | 0.7 mg/kg | 25% | 0.5 mg/kg
5 | COc1ccnc(CSc2nc3cc(OC(F)(F)F)ccc3[nH]2)c1C [Serial No. 2, 2-[(4-methoxy-3-methyl-2-pyridyl)methylthio]-5-trifluoromethoxy-1H-benzimidazole] | 0.35 mg/kg | 0.5 mg/kg | 20% | 0.3 mg/kg
6 | COc1ccnc(CSc2nc3cc(OC(F)F)c(OC(F)F)cc3[nH]2)c1C [Serial No. 15, 5,6-bis(difluoromethoxy)-2-[(4-methoxy-3-methyl-2-pyridyl)methylthio]-1H-benzimidazole] | 0.5 mg/kg | 1 mg/kg | 30% | 0.6 mg/kg
7 | COc1ccc2[nH]c(SCc3cc(OC)c(C)cn3)nc2c1 [Serial No. C, 5-methoxy-2-[(4-methoxy-5-methyl-2-pyridylmethyl)thio]-1H--benzimidazole, reference compound] | > 60.6 mg/kg |  |  | ~30 mg/kg
8 | COc1ccnc(C[S+]([O-])c2nc3cc(OC(F)(F)C(F)F)ccc3[nH]2)c1 (stereo not drawn) [Serial No. 5, 2-[(4-methoxy-2-pyridyl)methylsulfinyl]-5-(1,1,2,2-tetrafluoroethoxy)-1H-benzimidazole] | 0.5 mg/kg | 1.2 mg/kg | 33% | 0.7 mg/kg
9 | COc1ccnc(C[S+]([O-])c2nc3cc(OCC(F)(F)F)ccc3[nH]2)c1C (stereo not drawn) [Serial No. 10, 2-[(4-methoxy-3-methyl-2-pyridyl)methylsulfinyl]-5-(2,2,2-trifluoroethoxy)-1H-benzimidazole] | 0.5 mg/kg | 0.7 mg/kg | 25% | 0.5 mg/kg
10 | COc1ccnc(C[S+]([O-])c2nc3cc(OC(F)F)c(OC(F)F)cc3[nH]2)c1 (stereo not drawn) [Serial No. 13, 5,6-bis(difluoromethoxy)-2-[(4-methoxy-2-pyridyl)methylsulfinyl]-1H-benzimidazole] | ~1.1 mg/kg | ~1.7 mg/kg | ~ 30% | ~1.2 mg/kg
11 | COc1ccnc(C[S+]([O-])c2nc3cc(OC(F)(F)Cl)ccc3[nH]2)c1 (stereo not drawn) [Serial No. 18, 5-chlorodifluoromethoxy-2-[(4-methoxy-2-pyridyl)methylsulfinyl]-1H-benzimidazole] | < 1 mg/kg | 1.8 mg/kg | 35% | 1.3 mg/kg
12 | COc1ccc2[nH]c(SCc3ncc(C)c(OC)c3C)nc2c1 [Serial No. A, 5-methoxy-2-[(4-methoxy-3,5-dimethyl-2-pyridylmethyl)thio]-1H--benzimidazole, reference compound] | 12 mg/kg | 25 mg/kg | 20% | 9 mg/kg
13 | COc1ccnc(C[S+]([O-])c2nc3cc(OC(F)F)c(OC(F)F)cc3[nH]2)c1C (stereo not drawn) [Serial No. 14, 5,6-bis(difluoromethoxy)-2-[(4-methoxy-3-methyl-2-pyridyl)methylsulfinyl]-1H-benzimidazole] | ~0.3 mg/kg | 0.6 mg/kg | 20% | 0.2 mg/kg
14 | COc1cc2[nH]c([S+]([O-])Cc3nccc(OC)c3C)nc2cc1OC(F)F (stereo not drawn) [Serial No. 16, 5-difluoromethoxy-6-methoxy-2-[(4-methoxy-3-methyl-2-pyridyl)methylsulfinyl]-1H-benzimidazole] |  | ~0.8 mg/kg |  | 0.2 mg/kg
15 | COc1cc2[nH]c(SCc3nccc(OC)c3C)nc2cc1OC(F)F [Serial No. 17, 5-difluoromethoxy-6-methoxy-2-[(4-methoxy-3-methyl-2-pyridyl)methylthio]-1H-benzimidazole] | ~0.3 mg/kg | ~0.8 mg/kg | ~ 25% | ~0.3 mg/kg
16 | COc1c(C)cnc(C[S+]([O-])c2nc3cc(OC(F)(F)F)ccc3[nH]2)c1C (stereo not drawn) [Serial No. 8, 2-[(4-methoxy-3,5-dimethyl-2-pyridyl)methylsulfinyl]-5-trifluoromethoxy-1H-benzimidazole] | 1 mg/kg | 1.5 mg/kg | 20% | 0.4 mg/kg
17 | COc1c(C)cnc(CSc2nc3cc(OC(F)(F)F)ccc3[nH]2)c1C [Serial No. 9, 2-[(4-methoxy-3,5-dimethyl-2-pyridyl)methylthio]-5-trifluoromethoxy-1H-benzimidazole] | 1.4 mg/kg | 2 mg/kg | 10% | 1 mg/kg
18 | COc1ccnc(C[S+]([O-])c2nc3cc(OC(F)(F)C(F)F)ccc3[nH]2)c1C (stereo not drawn) [Serial No. 6, 2-[(4-methoxy-3-methyl-2-pyridyl)methylsulfinyl]-5-(1,1,2,2-tetrafluoroethoxy)-1H-benzimidazole] | 0.3 mg/kg | 0.7 mg/kg | 35% | 0.5 mg/kg
19 | COc1ccnc(CSc2nc3cc(OC(F)(F)C(F)F)ccc3[nH]2)c1C [Serial No. 7, 2-[(4-methoxy-3-methyl-2-pyridyl)methylthio]-5-(1,1,2,2-tetrafluoroethoxy)-1H-benzimidazole] | 0.35 mg/kg | 0.7 mg/kg | 40% | 0.5 mg/kg
20 | COc1ccnc(C[S+]([O-])c2nc3cc(OC(F)(F)F)ccc3[nH]2)c1 (stereo not drawn) [Serial No. 1, 2-[(4-methoxy-2-pyridyl)methylsulfinyl]-5-trifluoromethoxy-1H-benzimidazole] | 0.5 mg/kg | 1.1 mg/kg | 32% | 0.6 mg/kg
21 | COc1ccnc(C[S+]([O-])c2nc3cc(OC(F)(F)F)ccc3[nH]2)c1C (stereo not drawn) [Serial No. 3, 2-[(4-methoxy-3-methyl-2-pyridyl)methylsulfinyl]-5-trifluoromethoxy-1H-benzimidazole] | < 0.3 mg/kg | 0.4 mg/kg | 32% | 0.3 mg/kg
22 | COc1ccc2[nH]c([S+]([O-])Cc3cc(OC)c(C)cn3)nc2c1 (stereo not drawn) [Serial No. D, 5-methoxy-2-[(4-methoxy-5-methyl-2-pyridylmethyl)sulfinyl]-1H--benzimidazole, reference compound] | 8 mg/kg | 18 mg/kg | 10% | ~5 mg/kg
